Like-named read-outs stand apart in the source and are kept apart here.
Key:
IMP-1 = IMP-1 (Serratia marcescens, UniProt P52699); experiment: biochemical; format: biochemical; details: read-out: IMP-1 IC50
VIM-1 = VIM-1 (Pseudomonas aeruginosa (strain ATCC 15692 / DSM 22644 / CIP 104116 / JCM 14847 / LMG 12228 / 1C / PRS 101 / PAO1), UniProt A0A0F7KYQ8); experiment: Enzyme activity: determination of IC50, fluorescence assay with CCF2-FA substrate (VIM-1); format: biochemical
[1] = tested on: Serratia marcescens expressing IMP-1 (CL5741); experiment: Antibiotic potentiation activity: synergistic concentration (MITC95) with imipenem, OD600 growth; format: cell-based; details: for Serratia marcescens expressing IMP-1 (CL5741) MITC95: concentration giving 95% inhibition of bacterial growth
In short: (§1)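 Bacteria were grown overnight on agar at 35 °C, diluted 1:100 from saline into 1.1× CAMHB, then given compound with or without imipenem (4 μg/ml in assay, optionally 1 μg/ml). Endpoint: absorbance at 22–24 h.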

[2] = tested on: Escherichia coli expressing NDM-1 (CLB30016); experiment: as above; format: cell-based; details: for Escherichia coli expressing NDM-1 (CLB 30016) MITC95: concentration giving 95% inhibition of bacterial growth
In short: as §1

[3] = tested on: Klebsiella pneumoniae expressing VIM-1 (IHMA599644); experiment: as above; format: cell-based; details: for Klebsiella pneumoniae expressing VIM-1 (IHMA 599644) MITC95: concentration giving 95% inhibition of bacterial growth
In short: as §1

NDM-1 = NDM-1 (Klebsiella pneumoniae, UniProt C7C422); experiment: biochemical; format: biochemical
NDM-1, sequence (C7C422 whole entry, looked up, species assumed): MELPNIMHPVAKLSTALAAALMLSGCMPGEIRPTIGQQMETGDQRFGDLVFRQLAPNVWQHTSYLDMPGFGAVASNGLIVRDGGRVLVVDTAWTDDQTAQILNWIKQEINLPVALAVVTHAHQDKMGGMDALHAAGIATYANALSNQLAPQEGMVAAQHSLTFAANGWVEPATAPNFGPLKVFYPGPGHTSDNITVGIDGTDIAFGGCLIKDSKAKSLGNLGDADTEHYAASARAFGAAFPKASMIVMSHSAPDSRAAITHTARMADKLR

[4] = IMP-1 enzyme, CCF2-FA substrate
[5] = VIM-1 enzyme, CCF2-FA substrate, read-out: VIM-1 IC50
[6] = Serratia marcescens CL5741 (IMP-1), 95% growth inhibition
[7] = (CLB30016, NDM-1), 95% growth inhibition
[8] = Klebsiella pneumoniae IHMA599644 (VIM-1), 95% growth inhibition
[9] = NDM-1 enzyme, CCF2-FA substrate, read-out: NDM-1 IC50
[10] = fluorescence assay with CCF2-FA substrate
[11] = fluorescence assay with CCF2-FA substrate, read-out: VIM-1 IC50
[12] = fluorescence assay with CCF2-FA substrate, read-out: NDM-1 IC50
[13] = CL5741 (IMP-1), 95% inhibition of bacterial growth
[14] = CLB30016 (NDM-1), 95% inhibition of bacterial growth
[15] = IHMA599644 (VIM-1), 95% inhibition of bacterial growth
[16] = IMP-1 enzyme, CCF2-FA fluorescence assay
[17] = Serratia marcescens expressing IMP-1 (CL5741), 95% growth inhibition
[18] = Escherichia coli expressing NDM-1 (CLB30016), 95% growth inhibition
[19] = Klebsiella pneumoniae expressing VIM-1 (IHMA599644), 95% growth inhibition
[20] = NDM-1 enzyme, CCF2-FA fluorescence assay, read-out: NDM-1 IC50
[21] = VIM-1 enzyme, CCF2-FA fluorescence assay, read-out: VIM-1 IC50

IMP-1, sequence (P52699 whole entry, looked up): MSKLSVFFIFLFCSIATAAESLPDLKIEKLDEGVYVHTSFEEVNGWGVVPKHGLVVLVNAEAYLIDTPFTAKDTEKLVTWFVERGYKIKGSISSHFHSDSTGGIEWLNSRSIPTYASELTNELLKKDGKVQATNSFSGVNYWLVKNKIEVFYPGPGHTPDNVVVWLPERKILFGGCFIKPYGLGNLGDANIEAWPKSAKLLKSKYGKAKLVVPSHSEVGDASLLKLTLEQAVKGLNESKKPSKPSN

NS(=O)(=O)c1c(CC2CNC2)ccc(-c2cnc3ccccn23)c1-c1nn[nH]n1 [Example 546, 6-(azetidin-3-ylmethyl)-3-(imidazo[1,2-a]pyridin-3-yl)-2-(2H-tetrazol-5-yl)benzenesulfonamide]
IC50 (IMP-1; [4]): 178 nM | IC50 (VIM-1; [5]): 38.6 nM | Serratia marcescens MITC95 [1, 6]: 12.5 µM | Escherichia coli MITC95 [2, 7]: 1.563 µM | Klebsiella pneumoniae MITC95 [3, 8]: 12.5 µM | IC50 (NDM-1; [9]): 33.8 nM

Nc1ncc2cccc(-c3ccc(C(F)(F)F)c(S(N)(=O)=O)c3-c3nn[nH]n3)c2n1 [Example 558, 3-(2-aminoquinazolin-8-yl)-2-(2H-tetrazol-5-yl)-6-(trifluoromethyl)benzenesulfonamide]
IC50 (IMP-1; [4]): 1.96 nM | IC50 (VIM-1; [5]): 0.178 nM | Serratia marcescens MITC95 [1, 6]: 6.25 µM | Escherichia coli MITC95 [2, 7]: 6.25 µM | Klebsiella pneumoniae MITC95 [3, 8]: 6.25 µM | IC50 (NDM-1; [9]): 0.145 nM

Nc1[nH]nc2ccc(-c3cccc(S(N)(=O)=O)c3-c3nnn[nH]3)cc12 [Example 132, 3-(3-amino-2H-indazol-5-yl)-2-(1H-tetrazol-5-yl)benzenesulfonamide]
IC50 (IMP-1; [10]): 755 nM | IC50 (VIM-1; [11]): 26.7 nM | Serratia marcescens expressing IMP-1 (CL5741) MITC95 [1]: 12.5 µM | Escherichia coli expressing NDM-1 (CLB 30016) MITC95 [2]: 1.172 µM | Klebsiella pneumoniae expressing VIM-1 (IHMA 599644) MITC95 [3]: 6.25 µM | IC50 (NDM-1; [12]): 2.73 nM

NCCCCN1CCN(c2ccc(C(F)(F)F)c(S(N)(=O)=O)c2-c2nnn[nH]2)CC1 [Example 765, 3-[4-(4-aminobutyl)piperazin-1-yl]-2-(1H-tetrazol-5-yl)-6-(trifluoromethyl) benzenesulfonamide]
IC50 (IMP-1; [10]): 131 nM | IC50 (VIM-1; [11]): 125 nM | Serratia marcescens MITC95 [1, 13]: 3.125 µM | Escherichia coli MITC95 [2, 14]: 6.25 µM | Klebsiella pneumoniae MITC95 [3, 15]: 25 µM | IC50 (NDM-1; [12]): 93.3 nM

Nc1nc2ccc(-c3ccc(C(F)(F)F)c(S(N)(=O)=O)c3-c3nnn[nH]3)cc2s1 [Example 549, 3-(2-amino-1,3-benzothiazol-6-yl)-2-(1H-tetrazol-5-yl)-6-(trifluoromethyl)benzenesulfonamide]
IC50 (IMP-1; [4]): 0.472 nM | IC50 (VIM-1; VIM-1 IC50, VIM-1 enzyme, CCF2-FA substrate): 0.0629 nM | Serratia marcescens MITC95 [1, 6]: 3.125 µM | Escherichia coli MITC95 [2, 7]: 1.563 µM | Klebsiella pneumoniae MITC95 [3, 8]: 6.25 µM | IC50 (NDM-1; [9]): 0.256 nM

N=C(N)N1CCC(N)(c2ccc(-c3ccc(C(F)(F)F)c(S(N)(=O)=O)c3-c3nn[nH]n3)cc2)CC1 [Example 438, 4-amino-4-(3′-sulfamoyl-2′-(2H-tetrazol-5-yl)-4′-(trifluoromethyl)-[1,1′-biphenyl]-4-yl)piperidine-1-carboximidamide]
IC50 (IMP-1; [16]): 4.05 nM | IC50 (VIM-1; VIM-1 IC50, VIM-1 enzyme, CCF2-FA fluorescence assay): 10.8 nM | Serratia marcescens MITC95 [1, 17]: 0.25 µM | Escherichia coli MITC95 [2, 18]: 0.125 µM | Klebsiella pneumoniae MITC95 [3, 19]: 2.563 µM | IC50 (NDM-1; [20]): 3.67 nM

NS(=O)(=O)c1cccc(-c2ccc(CN3CCC(O)CC3)cc2)c1-c1nnn[nH]1 [Example 394, 4′-[(4-hydroxypiperidin-1-yl)methyl]-2-(1H-tetrazol-5-yl)biphenyl-3-sulfonamide]
IC50 (IMP-1; [16]): 195 nM | IC50 (VIM-1; [21]): 658 nM | Serratia marcescens MITC95 [1, 17]: 3.125 µM | Escherichia coli MITC95 [2, 18]: 2.344 µM | Klebsiella pneumoniae MITC95 [3, 19]: >200 µM | IC50 (NDM-1; [20]): 11.3 nM

Cc1cccc(Cc2cccc(S(N)(=O)=O)c2-c2nnn[nH]2)c1 [Example 158, 3-(3-methylbenzyl)-2-(1H-tetrazol-5-yl)benzenesulfonamide]
IC50 (IMP-1; [10]): 387 nM | IC50 (VIM-1; VIM-1 IC50, fluorescence assay with CCF2-FA substrate): 352 nM | Serratia marcescens expressing IMP-1 (CL5741) MITC95 [1]: 12.5 µM | Escherichia coli expressing NDM-1 (CLB 30016) MITC95 [2]: 3.125 µM | Klebsiella pneumoniae expressing VIM-1 (IHMA 599644) MITC95 [3]: 200 µM | IC50 (NDM-1; [12]): 16 nM

Nc1nc2ccc(-c3cccc(S(N)(=O)=O)c3-c3nnn[nH]3)cc2s1 [Example 417, 3-(2-amino-1,3-benzothiazol-6-yl)-2-(1H-tetrazol-5-yl)benzenesulfonamide]
IC50 (IMP-1; [16]): 49.8 nM | IC50 (VIM-1; [21]): 8.53 nM | Serratia marcescens MITC95 [1, 17]: 2.344 µM | Escherichia coli MITC95 [2, 18]: 1.953 µM | Klebsiella pneumoniae MITC95 [3, 19]: 9.375 µM | IC50 (NDM-1; [20]): 0.76 nM

CNC1CCc2c(-c3ccc(C(F)(F)F)c(S(N)(=O)=O)c3-c3nnn[nH]3)cccc21 (stereo not drawn) [Example 726, 3-[1-(methylamino)-2,3-dihydro-1H-inden-4-yl]-2-(1H-tetrazol-5-yl)-6-(trifluoromethyl)benzenesulfon-amide]
IC50 (IMP-1; [4]): 58.9 nM | IC50 (VIM-1; [5]): 1.21 nM | Serratia marcescens MITC95 [1, 6]: 25 µM | Escherichia coli MITC95 [2, 7]: 12.5 µM | Klebsiella pneumoniae MITC95 [3, 8]: 3.125 µM | IC50 (NDM-1; [9]): 26.8 nM

COc1cc(-c2cccc(S(N)(=O)=O)c2-c2nnn[nH]2)ccn1 [Example 135, 3-(2-methoxypyridin-4-yl)-2-(1H-tetrazol-5-yl)benzenesulfonamide]
IC50 (IMP-1; [10]): 62.6 nM | IC50 (VIM-1; [11]): 61.9 nM | Serratia marcescens expressing IMP-1 (CL5741) MITC95 [1]: 1.172 µM | Escherichia coli expressing NDM-1 (CLB 30016) MITC95 [2]: 1.172 µM | Klebsiella pneumoniae expressing VIM-1 (IHMA 599644) MITC95 [3]: 18.75 µM | IC50 (NDM-1; [12]): 4.47 nM

CCn1c(N)nc2cc(-c3ccc(C(F)(F)F)c(S(N)(=O)=O)c3-c3nnn[nH]3)ccc21 [Example 752, 3-(2-amino-1-ethyl-1H-benzimidazol-5-yl)-2-(1H-tetrazol-5-yl)-6-(trifluoromethyl)benzenesulfon-amide]
IC50 (IMP-1; [10]): 6.25 nM | IC50 (VIM-1; [11]): 0.677 nM | Serratia marcescens MITC95 [1, 13]: 12.5 µM | Escherichia coli MITC95 [2, 14]: 1.563 µM | Klebsiella pneumoniae MITC95 [3, 15]: 25 µM | IC50 (NDM-1; [12]): 2.33 nM

NS(=O)(=O)c1c(C(F)(F)F)ccc(-c2cnc3ccoc3c2)c1-c1nnn[nH]1 [Example 711, 3-furo[3,2-b]pyridin-6-yl-2-(1H-tetrazol-5-yl)-6-(trifluoromethyl)benzenesulfon-amide]
IC50 (IMP-1; [4]): 3.54 nM | IC50 (VIM-1; [5]): 0.224 nM | Serratia marcescens MITC95 [1, 6]: 12.5 µM | Escherichia coli MITC95 [2, 7]: 6.25 µM | Klebsiella pneumoniae MITC95 [3, 8]: 6.25 µM | IC50 (NDM-1; [9]): 1.01 nM

CN(C)CCCCNCc1ccc(-c2cccc(S(N)(=O)=O)c2-c2nnn[nH]2)cc1 [Example 356, 4′-({[4-(dimethylamino)butyl]amino}methyl)-2-(1H-tetrazol-5-yl)biphenyl-3-sulfonamide]
IC50 (IMP-1; [16]): 1540 nM | IC50 (VIM-1; [21]): 646 nM | Serratia marcescens MITC95 [1, 17]: 12.5 µM | Escherichia coli MITC95 [2, 18]: 1.563 µM | Klebsiella pneumoniae MITC95 [3, 19]: 75 µM | IC50 (NDM-1; [20]): 24.1 nM

NS(=O)(=O)c1c(C(F)(F)F)ccc([C@H]2CC[C@H](NC3CCCNCC3)CC2)c1-c1nnn[nH]1 (stereo partly drawn) [Example 695, 3-[4-(azepan-4-ylamino)cyclohexyl]-2-(1H-tetrazol-5-yl)-6-(trifluoromethyl)benzene sulfonamide]
IC50 (IMP-1; [4]): 42.3 nM | IC50 (VIM-1; [5]): 13.2 nM | Serratia marcescens MITC95 [1, 6]: 3.125 µM | Escherichia coli MITC95 [2, 7]: 0.7813 µM | Klebsiella pneumoniae MITC95 [3, 8]: 6.25 µM | IC50 (NDM-1; [9]): 13.6 nM

NS(=O)(=O)c1c(CCCCCCO)ccc(CCCCCCO)c1-c1nn[nH]n1 [Example 543, 3,6-Bis(6-hydroxyhexyl)-2-(2H-tetrazol-5-yl)benzenesulfonamide]
IC50 (IMP-1; [4]): 1.16 nM | IC50 (VIM-1; [5]): 3.21 nM | Serratia marcescens MITC95 [1, 6]: 12.5 µM | Escherichia coli MITC95 [2, 7]: 50 µM | Klebsiella pneumoniae MITC95 [3, 8]: >200 µM | IC50 (NDM-1; [9]): 2.62 nM

N=C(N)NC[C@H]1CC[C@H](c2ccc(C(F)(F)F)c(S(N)(=O)=O)c2-c2nnn[nH]2)CC1 [Example 503, 3-(trans 4-(guanidinomethyl)cyclohexyl)-2-(1H-tetrazol-5-yl)-6-(trifluoromethyl)benzenesulfonamide]
IC50 (IMP-1; [4]): 4.2 nM | IC50 (VIM-1; [5]): 0.183 nM | Serratia marcescens MITC95 [1, 6]: 0.1953 µM | Escherichia coli MITC95 [2, 7]: 0.1953 µM | Klebsiella pneumoniae MITC95 [3, 8]: 0.7813 µM | IC50 (NDM-1): 1.14 nM

Nc1nc2c(-c3ccc(CC4CCC4)c(S(N)(=O)=O)c3-c3nn[nH]n3)cccc2s1 [Example 535, 3-(2-Aminobenzo[d]thiazol-4-yl)-6-(cyclobutylmethyl)-2-(2H-tetrazol-5-yl)benzenesulfonamide]
IC50 (IMP-1; [4]): 6.86 nM | IC50 (VIM-1; [5]): 2.71 nM | Serratia marcescens MITC95 [1, 6]: 25 µM | Escherichia coli MITC95 [2, 7]: 6.25 µM | Klebsiella pneumoniae MITC95 [3, 8]: 50 µM | IC50 (NDM-1; [9]): 0.844 nM

CC(C)Cc1cccc(S(N)(=O)=O)c1-c1nn[nH]n1 [Example 167, 3-isobutyl-2-(2H-tetrazol-5-yl)benzenesulfonamide]
IC50 (IMP-1; [10]): 260 nM | IC50 (VIM-1; [11]): 1030 nM | Serratia marcescens expressing IMP-1 (CL5741) MITC95 [1]: 9.375 µM | Escherichia coli expressing NDM-1 (CLB 30016) MITC95 [2]: 1.563 µM | Klebsiella pneumoniae expressing VIM-1 (IHMA 599644) MITC95 [3]: 200 µM | IC50 (NDM-1; [12]): 12.4 nM

Reference: US9708336B2, “Metallo-beta-lactamase inhibitors” (priority 2014, dated 2017)
